Legend:
Experiment in all cases: Post-emergence herbicidal effect, greenhouse pot test
AVEFA = assay type: in vivo, Avena fatua; details: Avena fatua, 504 h, visual rating about 3 weeks after treatment, read-out: Post-emergence effect against AVEFA
Excerpt: (§1) • ALOMY: Alopecurus myosuroides SETVI: Setaria viridis • AVEFA: Avena fatua POLCO: Fallopia convolvulus • AMARE: Amaranthus retroflexus ECHCG: Echinochloa crus-galli • LOLRJ: Lolium rigidum STEME: Stellaria media • VERPE: Veronica persica MATIN: Tripleurospermum inodorum • DIGSA: Digitaria sanguinalis ABUTH: Abutylon threophrasti • TRZAS: Triticum aestivum VIOTR: Viola tricolor • BRSNW: Brassica napus ZEAMX: Zea mays • PHBPU: Ipomoea purpurea GLXMA: Glycine max • ORYSA: Oryza sativa HORMU: Hordeum murinum
(§2) Seeds of monocotyledonous and dicotyledonous weeds and crop plants are placed in sandy loam in plastic or organic planting pots, covered with soil and cultivated in a greenhouse under controlled growth conditions. 2 to 3 weeks after sowing, the trial plants are treated at the one-leaf stage. The compounds of the invention, formulated in the form of wettable powders (WP) or as emulsion concentrates (EC), are then sprayed onto the green parts of the plants as aqueous suspension or emulsion with addition of 0.5% additive at a water application rate of 600 l/ha (converted). After the test plants have been kept in the greenhouse under optimum growth conditions for about 3 weeks, the activity of the preparations is rated visually in comparison to untreated controls. For example, 100% activity=the plants have died, 0% activity=like control plants.
(§3) Tables 20a to 38c below show the effects/crop compatibilities of selected compounds of the general formula (I) on various harmful plants at an application rate corresponding to 20 to 320 g/ha, which were obtained by the trial procedure specified above.

ECHCG = assay type: in vivo, Echinochloa crus-galli; details: Echinochloa crus-galli, 504 h; for pest or weed control at 20 g/ha: visual rating about 3 weeks after treatment, read-out: Post-emergence effect against ECHCG; for pest or weed control at 80 g/ha / pest or weed control at 320 g/ha: read-out: Post-emergence effect against ECHCG in %
Excerpt: as §1, §2, §3

VERPE = assay type: in vivo, Veronica persica; details: Veronica persica, 504 h, read-out: Post-emergence effect against VERPE in %
Excerpt: as §1, §2, §3

LOLRI = assay type: in vivo, Lolium rigidum; details: Lolium rigidum, 504 h, read-out: Post-emergence effect against LOLRI in %
Excerpt: as §1, §2, §3

SETVI = assay type: in vivo, Setaria viridis; details: Setaria viridis, 504 h, read-out: Post-emergence effect against SETVI in %
Excerpt: as §1, §2, §3

ALOMY = assay type: in vivo, Alopecurus myosuroides; details: Alopecurus myosuroides, 504 h, visual rating about 3 weeks after treatment, read-out: Post-emergence effect against ALOMY
Excerpt: as §1, §2, §3

MATIN = assay type: in vivo, Tripleurospermum inodorum; details: Tripleurospermum inodorum, 504 h, read-out: Post-emergence effect against MATIN in %
Excerpt: as §1, §2, §3

ABUTH = assay type: in vivo, Abutilon theophrasti; details: Abutilon theophrasti, 504 h, visual rating about 3 weeks after treatment, read-out: Post-emergence effect against ABUTH
Excerpt: as §1, §2, §3

POLCO = assay type: in vivo, Fallopia convolvulus; details: Fallopia convolvulus, 504 h, read-out: Post-emergence effect against POLCO in %
Excerpt: as §1, §2, §3

VIOTR = assay type: in vivo, Viola tricolor; details: Viola tricolor, 504 h, read-out: Post-emergence effect against VIOTR in %
Excerpt: as §1, §2, §3

AMARE = assay type: in vivo, Amaranthus retroflexus; details: Amaranthus retroflexus, 504 h, visual rating about 3 weeks after treatment, read-out: Post-emergence effect against AMARE
Excerpt: as §1, §2, §3

DIGSA = assay type: in vivo, Digitaria sanguinalis; details: Digitaria sanguinalis, 504 h, visual rating about 3 weeks after treatment, read-out: Post-emergence effect against DIGSA
Excerpt: as §1, §2, §3

PHBPU = assay type: in vivo, Ipomoea purpurea; details: Ipomoea purpurea, 504 h, read-out: Post-emergence effect against PHBPU in %
Excerpt: as §1, §2, §3

Structure (SMILES)	pest or weed control at 80 g/ha (AVEFA) [%]	pest or weed control at 320 g/ha (AVEFA) [%]	pest or weed control at 80 g/ha (ECHCG) [%]	pest or weed control at 320 g/ha (ECHCG) [%]	pest or weed control at 20 g/ha (VERPE) [%]	pest or weed control at 80 g/ha (VERPE) [%]	pest or weed control at 320 g/ha (VERPE) [%]	pest or weed control at 320 g/ha (LOLRI) [%]	pest or weed control at 80 g/ha (SETVI) [%]	pest or weed control at 320 g/ha (SETVI) [%]	pest or weed control at 320 g/ha (ALOMY) [%]	pest or weed control at 80 g/ha (MATIN) [%]	pest or weed control at 320 g/ha (MATIN) [%]	pest or weed control at 80 g/ha (ABUTH) [%]	pest or weed control at 320 g/ha (ABUTH) [%]	pest or weed control at 80 g/ha (POLCO) [%]	pest or weed control at 320 g/ha (POLCO) [%]	pest or weed control at 80 g/ha (VIOTR) [%]	pest or weed control at 320 g/ha (VIOTR) [%]	pest or weed control at 80 g/ha (AMARE) [%]	further results
COC(=O)C(OC)Oc1nn(-c2cc(F)ccc2F)c(-c2cncc(F)c2)c1C1CC1 (stereo not shown) [Example I-111]	90	90	90	90	80	80	80	90	80	80	90	80	80	80	90	80	80	80	80	80	pest or weed control at 20 g/ha (ECHCG): 80%; pest or weed control at 80 g/ha (LOLRI): 90%; pest or weed control at 20 g/ha (SETVI): 80%; pest or weed control at 80 g/ha (ALOMY): 80%; pest or weed control at 20 g/ha (MATIN): 80%; pest or weed control at 320 g/ha (AMARE): 80%; pest or weed control at 320 g/ha (DIGSA): 80%; pest or weed control at 20 g/ha (PHBPU): 80%; pest or weed control at 80 g/ha (PHBPU): 90%; pest or weed control at 320 g/ha (PHBPU): 90%
CCOC(=O)C(OC)Oc1nn(-c2cc(F)ccc2F)c(-c2cncc(F)c2)c1C1CC1 (stereo not shown) [Example I-37]	80	90	100	100	90	100	100	100	90	90	100	90	90	90	90	90	90	90	90	90	pest or weed control at 80 g/ha (LOLRI): 90%; pest or weed control at 80 g/ha (ALOMY): 100%; pest or weed control at 20 g/ha (MATIN): 80%; pest or weed control at 20 g/ha (ABUTH; 20 g/ha): 80%; pest or weed control at 20 g/ha (VIOTR): 80%; pest or weed control at 320 g/ha (AMARE): 90%; pest or weed control at 320 g/ha (DIGSA): 90%; pest or weed control at 20 g/ha (PHBPU): 90%; pest or weed control at 80 g/ha (PHBPU): 90%; pest or weed control at 320 g/ha (PHBPU): 90%
COC(=O)C(OC)Oc1nn(-c2ccccc2)c(-c2ccc(F)nc2)c1Br (stereo not shown) [Example I-30]	90	90	90	90	80	80	90	90	90	90	90	80	90	80	90	80	80	90	90	80	pest or weed control at 20 g/ha (ECHCG): 80%; pest or weed control at 20 g/ha (SETVI): 80%; pest or weed control at 20 g/ha (VIOTR): 80%; pest or weed control at 320 g/ha (AMARE): 80%; pest or weed control at 80 g/ha (DIGSA; 80 g/ha): 90%; pest or weed control at 320 g/ha (DIGSA): 90%; pest or weed control at 80 g/ha (PHBPU): 80%; pest or weed control at 320 g/ha (PHBPU): 90%

From patent US20240391862A1, “(1,4,5-TRISUBSTITUTED-1H-PYRAZOL-3-YL)OXY-2-ALKOXY ALKYL ACIDS AND THEIR DERIVATIVES, THEIR SALTS AND THEIR USE AS HERBICIDAL AGENTS” (Bayer AKtiengesellschaft, priority 2021, published 2024)
